Measurements reported in patent publication US4524073A, “β-Lactam compounds” (Beecham Group p.1.c., priority 1982, dated 1985).
≈ marks a conversion by molar mass, not a printed value.

Tests used:
S.aureus Russell = experiment: Antibacterial activity, S. aureus Russell (Table 2); type: cell-based; details: Staphylococcus aureus, compound alone
E.coli JT39 = experiment: Antibacterial activity, E. coli JT39 (Table 2); type: cell-based; details: Escherichia coli, compound alone

SMILES | MIC (S.aureus Russell) | MIC (E.coli JT39)
CS(=O)(=O)NCCCNC/C=C1\O[C@@H]2CC(=O)N2[C@H]1C(=O)O [Example 13, 9-N-(3-Methylsulphonamidopropyl)aminodeoxyclavulanic acid] | 16 µg/mL (≈ 48 µM) | 31.2 µg/mL (≈ 93.6 µM)
CCOC(CCCNC/C=C1\O[C@@H]2CC(=O)N2[C@H]1C(=O)O)OCC [Example 19, 9-N-(4,4-Diethoxybutyl)amino deoxyclavulanic acid] | 16 µg/mL (≈ 46.7 µM) | 31.2 µg/mL (≈ 91.1 µM)
O=C(O)[C@H]1/C(=C/CNCCS(=O)(=O)c2ccccc2)O[C@@H]2CC(=O)N21 [Example 23, 9-N-[2-(phenylsulphonyl)ethyl]aminodeoxyclavulanic acid] | 16 µg/mL (≈ 43.7 µM) | 31.2 µg/mL (≈ 85.2 µM)
NC(=O)CCNC/C=C1\O[C@@H]2CC(=O)N2[C@H]1C(=O)O [Example 28, 9-N-(2-carbamoylethyl)aminodeoxyclavulanic acid] | 16 µg/mL (≈ 59.4 µM) | 16 µg/mL (≈ 59.4 µM)
O=C(O)[C@H]1/C(=C/CNCCCn2ccnc2)O[C@@H]2CC(=O)N21 [Example 18] | 8 µg/mL (≈ 26.1 µM) | 31.2 µg/mL (≈ 102 µM)
CS(=O)(=O)NCCNC/C=C1\O[C@@H]2CC(=O)N2[C@H]1C(=O)O [Example 12, 9-N-(2-methylsulphonamidoethyl)aminodeoxyclavulanic acid] | 8 µg/mL (≈ 25.1 µM) | 31.2 µg/mL (≈ 97.7 µM)
COC(CNC/C=C1\O[C@@H]2CC(=O)N2[C@H]1C(=O)O)OC [Example 1, 9-N-(2,2-Dimethoxyethyl)amino deoxyclavulanate] | 8 µg/mL (≈ 27.9 µM) | 16 µg/mL (≈ 55.9 µM)
O=C(O)[C@H]1/C(=C/CNCCc2ccncc2)O[C@@H]2CC(=O)N21 [Example 5, 9-N-(2-Pyrid-4'-ylethyl)amino deoxyclavulanic acid] | 8 µg/mL (≈ 26.4 µM) | 31.2 µg/mL (≈ 103 µM)
O=C(O)[C@H]1/C(=C/CNCCCl)O[C@@H]2CC(=O)N21 [Example 2, 9-N-(2-Chloroethyl)amino-deoxyclavulanic acid] | 8 µg/mL (≈ 30.7 µM) | 31.2 µg/mL (≈ 120 µM)
CC(=O)OCCCCNC/C=C1\O[C@@H]2CC(=O)N2[C@H]1C(=O)O [Example 20, 9-N-(4-Acetoxybutyl)aminodeoxyclavulanic acid] | 16 µg/mL (≈ 51.2 µM) | 31.2 µg/mL (≈ 99.9 µM)

The next compounds have a lower MIC (S.aureus Russell) than those just listed; values first:

MIC (S.aureus Russell) | MIC (E.coli JT39) | SMILES
2 µg/mL (≈ 6.28 µM) | 31.2 µg/mL (≈ 98 µM) | O=C(O)[C@H]1/C(=C/CNCC(O)c2ccccc2)O[C@@H]2CC(=O)N21 (stereo partly shown) [Example 30, 9-N-(2-Hydroxy-2-phenylethyl)aminodeoxyclavulanic acid]
4 µg/mL (≈ 12.6 µM) | 16 µg/mL (≈ 50.4 µM) | O=C(O)[C@H]1/C(=C/CNCCNc2ccccc2)O[C@@H]2CC(=O)N21 [Example 29, 9-N-(2-Phenylaminoethyl)aminodeoxyclavulanic acid]
4 µg/mL (≈ 12.8 µM) | 62.5 µg/mL (≈ 200 µM) | CN(C)C(=O)NCCNC/C=C1\O[C@@H]2CC(=O)N2[C@H]1C(=O)O [Example 22 (2nd compound), 9-N-(N'N'-dimethylureido)ethylaminodeoxyclavulanic acid]
≤ 0.5 µg/mL | 8 µg/mL (≈ 23.4 µM) | O=C(O)[C@H]1/C(=C/CNCCc2c[nH]c3ccccc23)O[C@@H]2CC(=O)N21 [Example 26, 9-N-(2-Indol-3'-ylethyl)aminodeoxyclavulanic acid]
2 µg/mL (≈ 5.57 µM) | 8 µg/mL (≈ 22.3 µM) | O=C(CCNC/C=C1\O[C@@H]2CC(=O)N2[C@H]1C(=O)O)NCc1ccccc1 [Example 25, 9-N-(3-N-Benzylcarbamoyleth-1-yl)aminodeoxyclavulanic acid]
4 µg/mL (≈ 12.2 µM) | 8 µg/mL (≈ 24.4 µM) | CC(C)(CCCNC/C=C1\O[C@@H]2CC(=O)N2[C@H]1C(=O)O)[N+](=O)[O-] [Example 21, 9-N-[4-Methyl-4-nitropentyl]aminodeoxyclavulanic acid]
4 µg/mL (≈ 13.2 µM) | 31.2 µg/mL (≈ 103 µM) | O=C(O)[C@H]1/C(=C/CNCCc2ccccn2)O[C@@H]2CC(=O)N21 [Example 4, 9-N-(2-Pyrid-2'-ylethyl)aminodeoxyclavulanic acid]
